Measurements published in US6515025B2, “Use of ethynyl alanine amino diol compounds to inhibit enzymatic conversion of angiotensinogen to angiotensin I” (Pharmacia Corporation, priority 1991, dated 2003).

What was measured:
Format in all cases: biochemical
human renin = target: T1, human renin (Homo sapiens, UniProt P00797); assay: Human renin inhibition in vitro
T1 construct: purchased National Institute for Biological Standards, London
T1 sequence (P00797 67-406): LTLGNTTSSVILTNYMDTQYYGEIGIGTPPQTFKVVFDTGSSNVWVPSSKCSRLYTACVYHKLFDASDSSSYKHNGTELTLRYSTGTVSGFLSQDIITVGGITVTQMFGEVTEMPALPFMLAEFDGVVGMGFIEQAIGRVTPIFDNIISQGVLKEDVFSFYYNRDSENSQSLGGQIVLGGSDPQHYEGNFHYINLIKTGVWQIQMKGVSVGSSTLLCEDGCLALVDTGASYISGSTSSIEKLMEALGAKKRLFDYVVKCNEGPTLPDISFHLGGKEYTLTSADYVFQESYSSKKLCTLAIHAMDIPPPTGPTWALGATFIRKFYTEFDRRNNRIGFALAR
Method: Compounds of Formula I were evaluated as inhibitors of human renin in an in vitro assay, as follows: This human renin inhibition test has been previously described in detail [Papaioannou et al., Clinical and Experimental Hypertension, A7(9), 1243-1257 (1985)]. Human renin was obtained from the National Institute for Biological Standards, London. An incubation mixture was prepared containing the following components: in a total volume of 0.25 mL: 100 mM Tris-acetate buffer at pH 7.4, 25×10^−6 Goldblatt units of renin, 0.05 mL of plasma from human volunteers taking oral contraceptives, 6.0 mM Na-EDTA, 2.4 mM phenylmethyl sulfonyl fluoride, 1.5 mM 8-hydroxyquinoline, 0.4 mg/mL bovine serum albumin (BSA), and 0.024 mg/mL neomycin sulfate. This mixture was incubated for two hours at 37° C. in the presence or absence of renin inhibitors. The produced angiotensin I was determined by radioimmunoassay (New England Nuclear kit). Test compounds to be assayed were dissolved in DMSO and diluted with 100 mM Tris-acetate buffer at pH 7.4 containing 0.5% BSA to the appropriate concentration. The final concentration of organic solvent in the reaction mixture was less than 1%. Control incubations at 37° C. were used to correct for effects of organic solvent on renin activity.

[1] = target: T2, renin (Marmoset Monkey plasma) (Callithrix jacchus, UniProt Q9TSZ1); assay: Renin inhibitor species specificity, marmoset plasma renin activity
T2 construct: the animal plasma is the source of both the renin substrate and the renin enzyme; from tissue; host or cells: pooled marmoset plasma
T2 sequence (Q9TSZ1 61-400): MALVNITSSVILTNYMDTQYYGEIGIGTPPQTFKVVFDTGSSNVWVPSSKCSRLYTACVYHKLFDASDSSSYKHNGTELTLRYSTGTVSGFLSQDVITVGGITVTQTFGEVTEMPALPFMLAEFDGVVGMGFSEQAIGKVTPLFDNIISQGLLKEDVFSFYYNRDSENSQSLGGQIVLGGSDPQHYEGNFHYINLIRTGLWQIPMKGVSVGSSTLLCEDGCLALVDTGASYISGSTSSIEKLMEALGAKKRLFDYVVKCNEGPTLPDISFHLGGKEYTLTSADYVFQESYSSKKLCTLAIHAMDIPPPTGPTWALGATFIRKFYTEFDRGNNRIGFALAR
Method: (§1) Blood was collected in a 10 ml Becton Dickinson vacutainer tube with 0.1 ml of 15% EDTA (K3) solution (15 mg) from normal animals or high renin animals; i.e., those pre-treated with 5 mg/kg of Lasix® intramuscularly 2 times within a 6 hour interval 24 hours prior to bleeding. The blood was then centrifuged at 2500 RPM for 20 minutes and the plasma from the various species respectively pooled, aliquoted and stored in the freezer. The human plasma source was taking a prescription of an angiotensin converting enzyme inhibitor.
(§2) The plasma renin activity assay is a modification of the human renin inhibition test in that the animal plasma is the source of both the renin substrate and the renin enzyme. In a total volume of 0.1 ml, 90 mM Tris-acetate buffer, pH 7.5, 12 mM sodium EDTA, 0.012 mg/ml neomycin sulfate, 0.9 mg/ml bovine serum albumin, 1.61 mM phenylmethyl sulfonyl fluoride, 4 mM 8-hydroxyquinoline and 0.09 ml of the animal or human plasmas were incubated for 2 hours at 37° C. in a shaking water bath or at 4° C. in an ice bath in the presence or absence of renin inhibitors. The produced angiotensin I was determined by radioimmunoassay (New England Nuclear kit).
(§3) The amount of angiotensin I generated during the 2 hours at 4° C. was usually less than 5% of that activity produced at 37° C.; however, the 4° C. background values were nevertheless subtracted from the 37° C. ones for the 100% activity values. The renin inhibitors were assayed in duplicate using 5 concentrations and the data is expressed as a percent of the 100% total renin activity.

renin (Rat plasma) = target: T3, renin (Rat plasma) (Rattus norvegicus, UniProt P08424); assay: Renin inhibitor species specificity, rat plasma renin activity
T3 construct: the animal plasma is the source of both the renin substrate and the renin enzyme; from tissue; host or cells: pooled rat plasma
T3 sequence (P08424 65-402): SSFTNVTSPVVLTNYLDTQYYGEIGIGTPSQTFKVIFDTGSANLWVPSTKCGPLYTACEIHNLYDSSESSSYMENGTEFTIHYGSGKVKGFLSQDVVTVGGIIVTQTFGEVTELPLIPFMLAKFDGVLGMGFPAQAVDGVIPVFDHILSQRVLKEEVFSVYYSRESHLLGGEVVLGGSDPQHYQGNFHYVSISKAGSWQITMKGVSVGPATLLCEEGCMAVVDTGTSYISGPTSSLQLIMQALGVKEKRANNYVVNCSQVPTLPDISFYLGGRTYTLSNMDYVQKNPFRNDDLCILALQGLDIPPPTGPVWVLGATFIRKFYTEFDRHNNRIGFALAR
Method: as §1, §2, §3

renin (human plasma) = target: T4, renin (human plasma) (Homo sapiens, UniProt P00797); assay: Renin inhibitor species specificity, human plasma renin activity
T4 construct: the animal plasma is the source of both the renin substrate and the renin enzyme; from tissue
T4 sequence (P00797 67-406): T1 sequence (P00797 67-406)
Method: as §1, §2, §3

IC50 (human renin): 1 nM
% of Total Renin Activity ([1]; 0.25 nM): 94%
% of Total Renin Activity ([1]; 1 nM): 75%
% of Total Renin Activity ([1]; 4 nM): 42%
% of Total Renin Activity ([1]; 16 nM): 11%
% of Total Renin Activity (renin (Rat plasma); 100 nM): 93%
% of Total Renin Activity (renin (Rat plasma); 400 nM): 76%
% of Total Renin Activity (range only) (renin (Rat plasma); 1600 nM): (23-34)
% of Total Renin Activity (renin (human plasma); 1 nM): 90%
% of Total Renin Activity (renin (human plasma); 4 nM): 50%
% of Total Renin Activity (renin (human plasma); 16 nM): 10%
SMILES: C#CC[C@H](NC(=O)C(CC(=O)N(C)CCN(C)C)Cc1ccccc1)C(=O)NC(CC1CCCCC1)[C@@H](O)C(O)CC(C)C (relative stereo) [Example 1, N1-[1R*-[[[1S,1R*-(cyclohexylmethyl)-2S*,3R*-dihydroxy-5-methylhexyl]amino]carbonyl]-3-butynyl]-N4-[2-(dimethylamino)ethyl]-N4-methyl-2S*-(phenylmethyl)butanediamide]
